Where two headings read alike, the source gives them in different places.

Assay [1] relates to primary neurons. Kind of assay: Rotenone dose-response cell viability assay (nuclei count, genomic DNA and total RNA quantification). To be noted: for IC50: Mus musculus, Primary neuron, 168 h. It counts as cell-based, mouse. The procedure:
Cells were incubated under appropriate culturing conditions until DIV14.
Cell nuclei were stained on DIV14 with Hoechst dye and evaluated with a Zeiss Observer Z1 microscope. Subsequently, the neuron cultures were lysed and gDNA as well as total RNA was isolated using the Qiagen AllPrep DNA/RNA Mini Kit. The gDNA and total RNA concentrations were determined using a UV spectrophotometer.
The present inventors first evaluated changes in the abundance of genomic DNA and total RNA in response to cytotoxic stress within a primary neuron population.

In assay [2] the test system is E-SARE sensor. Kind of assay: E-SARE luciferase activity in primary neurons upon stimulation. To be noted: DIV14. The format is cell-based, mouse. The source says:
For multiplate assays, cells were transfected (for cell lines) using Lipofectamine2000 (Invitrogen) according to the manufacturer's instructions or infected (for primary neurons) by an E-SARE-luciferase containing AAV with 500-1000 AAV GCs per cell.
The assay compares an unstimulated response with a stimulated response.
Finally, the E-SARE sensor not only responds to neuronal silencing (TTX/APV) and synaptic stimulation (BIC/4-AP), but can also be induced by brain-derived neurotrophic factor (BDNF) which is a well-established stimulus with functions in neuronal differentiation and plasticity (FIG. 6C) (Park H and Poo M. Nat Rev Neurosci. 2013 January; 14(1):7-23). The optimized and validated E-SARE sensor has been subsequently used for developing the pooled RNAi screen in primary neurons.

One may read the IC50 as the concentration at which inhibition is half-maximal. On to `C=C(C)[C@H]1Cc2c(ccc3c2O[C@@H]2COc4cc(OC)c(OC)cc4[C@@H]2C3=O)O1` [rotenone], for which the 50% inhibitory concentration (IC50) in assay [1] (read-out: IC50, genomic DNA content) was 40 nM; in assay [1] (read-out: IC50, total RNA content) it was 15 nM; in assay [1] (read-out: IC50, viable cells (pyknotic nuclei filtered out)), 14 nM. The “reduction of genomic DNA content” value in assay [1] (rotenone concentrations above 100 nM, 7 days) was about 40%.

B1: brain-derived neurotrophic factor (protein, UniProt P23560 19-247, looked up)
Neurotrophic factor BDNF …: APMKEANIRGQGGLAYPGVRTHGTLESVNGPKAGSRGLTSLADTFEHVIEELLDEDQKVRPNEENNKDADLYTSRVMLSSQVPLEPPLLFLLEEYKNYLDAANMSMRVRRHSDPARRGELSVCDSISEWVTAADKKTAVDMSGGTVTVLEKVPVSKGQLKQYFYETKCNPMGYTKEGCRGIDKRHWNSQCRTTQSYVRALTMDSKKRIGWRFIRIDTSCVCTLTIKRGR
notes: well-established stimulus with functions in neuronal differentiation and plasticity
B1: the E-SARE sensor activity entry in assay [2] is on record as “induced”.

Source of the values: patent publication US20180187184A1, “NOVEL CONSTRUCTS AND SCREENING METHODS” (Systasy Bioscience GmbH, priority 2016, published 2018).
